Experimental data reported in ChEMBL document CHEMBL1201862, “PubChem BioAssay data set” (2004).
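Five concentrations, 48 hours, 96-well plates. Abbreviation: GI50, concentration required for 50% inhibition of growth.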 Active and inactive are the calls of the source. Cut-off read from the data, not from the text of the source: active = GI50 up to about 1.1 µM and inactive = higher.

Key:
Experiment in all cases: NCI tumour cell line growth inhibition, 48 h
CAKI-1 = tested on: CAKI-1
KM12 = tested on: KM12
UO-31 = tested on: UO-31
OVCAR-8 = tested on: OVCAR-8
NCI-H226 = tested on: NCI-H226
ACHN = tested on: ACHN
SR = tested on: SR
CCRF-CEM = tested on: CCRF-CEM
SF-539 = tested on: SF-539
SN12C = tested on: SN12C
HCT-116 = tested on: HCT-116
Malme-3M = tested on: Malme-3M
SK-MEL-2 = tested on: SK-MEL-2
RPMI-8226 = tested on: RPMI-8226
OVCAR-4 = tested on: OVCAR-4
A549 = tested on: A549
SF-268 = tested on: SF-268
COLO 205 = tested on: COLO 205
OVCAR-5 = tested on: OVCAR-5
MDA-MB-231 = tested on: MDA-MB-231

| Compound | GI50 (CAKI-1) | GI50 (KM12) | GI50 (UO-31) | GI50 (OVCAR-8) | GI50 (NCI-H226) | GI50 (ACHN) | GI50 (SR) | GI50 (CCRF-CEM) | GI50 (SF-539) | GI50 (SN12C) | GI50 (HCT-116) | GI50 (Malme-3M) | GI50 (SK-MEL-2) | GI50 (RPMI-8226) | GI50 (OVCAR-4) | GI50 (A549) | GI50 (SF-268) | GI50 (COLO 205) | GI50 (OVCAR-5) | GI50 (MDA-MB-231) |
| --- | --- | --- | --- | --- | --- | --- | --- | --- | --- | --- | --- | --- | --- | --- | --- | --- | --- | --- | --- | --- |
| COc1ccc([C@H]2CC(=O)N3CCCC3N2)cc1 (some centres not stated) | > 100 µM (inactive) | > 100 µM (inactive) | > 100 µM (inactive) | > 100 µM (inactive) | > 100 µM (inactive) | > 100 µM (inactive) | > 100 µM (inactive) | > 100 µM (inactive) | > 100 µM (inactive) | > 100 µM (inactive) | > 100 µM (inactive) | > 100 µM (inactive) | > 100 µM (inactive) | > 100 µM (inactive) | > 100 µM (inactive) | > 100 µM (inactive) | > 100 µM (inactive) | > 100 µM (inactive) | > 100 µM (inactive) | – |
| O=NN(CCCl)C(=O)N[C@H]1CC[C@@H](C(=O)O)CC1 | 92.9 µM (inactive) | > 100 µM (inactive) | > 100 µM (inactive) | > 100 µM (inactive) | > 100 µM (inactive) | 65.6 µM (inactive) | 40.2 µM (inactive) | 36.6 µM (inactive) | 29.6 µM (inactive) | > 100 µM (inactive) | > 100 µM (inactive) | > 96.2 µM (inactive) | > 100 µM (inactive) | 46.3 µM (inactive) | > 100 µM (inactive) | 89.7 µM (inactive) | 32.8 µM (inactive) | > 100 µM (inactive) | > 100 µM (inactive) | – |
| CC(C)(C)OC(=O)NC(CO)c1cccc(OCc2ccccc2)c1 (configuration not stated) | > 100 µM (inactive) | > 100 µM (inactive) | > 100 µM (inactive) | > 100 µM (inactive) | > 100 µM (inactive) | 71.4 µM (inactive) | 86.3 µM (inactive) | 31.7 µM (inactive) | > 100 µM (inactive) | > 100 µM (inactive) | > 65.2 µM (inactive) | 63 µM (inactive) | > 100 µM (inactive) | 43.4 µM (inactive) | 99.8 µM (inactive) | 42.8 µM (inactive) | > 100 µM (inactive) | 47.3 µM (inactive) | > 100 µM (inactive) | – |
| Brc1ccc2c(c1)C1(c3cc(Br)ccc3-2)c2cc(Br)ccc2-c2ccc(Br)cc21 | > 100 µM (inactive) | > 100 µM (inactive) | > 100 µM (inactive) | > 100 µM (inactive) | > 100 µM (inactive) | > 100 µM (inactive) | > 100 µM (inactive) | > 100 µM (inactive) | > 100 µM (inactive) | > 100 µM (inactive) | > 100 µM (inactive) | > 100 µM (inactive) | > 100 µM (inactive) | > 100 µM (inactive) | > 100 µM (inactive) | > 100 µM (inactive) | > 100 µM (inactive) | > 100 µM (inactive) | > 100 µM (inactive) | – |
| Cc1nn2c(=O)n(-c3cccc(-n4nnc5c(-c6ccccc6)c(C)nn5c4=O)c3C)nnc2c1-c1ccccc1 | 39.4 µM (inactive) | > 10 µM (inactive) | 8.91 µM (inactive) | 24.7 µM (inactive) | 45.3 µM (inactive) | 18.7 µM (inactive) | 12.9 µM (inactive) | 19.9 µM (inactive) | 24.4 µM (inactive) | 17.1 µM (inactive) | 15.8 µM (inactive) | 14.2 µM (inactive) | 3.33 µM (inactive) | 17.6 µM (inactive) | 15.6 µM (inactive) | 33.3 µM (inactive) | 46 µM (inactive) | 17.5 µM (inactive) | > 100 µM (inactive) | – |
| Cc1cc2nc3c(C#N)c(-c4ccccc4)cc(Nc4ccc(F)cc4)n3c2cc1C | 29.9 µM (inactive) | 86.7 µM (inactive) | – | 10.7 µM (inactive) | 27.2 µM (inactive) | 16.4 µM (inactive) | – | – | 18.6 µM (inactive) | 13.9 µM (inactive) | 13.7 µM (inactive) | 21.5 µM (inactive) | – | > 100 µM (inactive) | 53.6 µM (inactive) | – | 10.5 µM (inactive) | > 100 µM (inactive) | 15.6 µM (inactive) | 15.1 µM (inactive) |
| N#Cc1c2c(c(Nc3cccc(C(F)(F)F)c3)n3c1nc1ccccc13)CCC2 | > 100 µM (inactive) | > 100 µM (inactive) | – | > 100 µM (inactive) | > 100 µM (inactive) | > 100 µM (inactive) | – | – | > 100 µM (inactive) | > 100 µM (inactive) | > 100 µM (inactive) | > 100 µM (inactive) | – | > 100 µM (inactive) | > 100 µM (inactive) | – | > 100 µM (inactive) | > 100 µM (inactive) | > 100 µM (inactive) | > 100 µM (inactive) |
| CC(=O)OC1[C@H](OC(C)=O)C2=C(C)[C@@H](OC(C)=O)C[C@@]2(C(C)(C)O)[C@@H](OC(C)=O)[C@H]2[C@@]1(C)[C@@H](OC(C)=O)CC(OC(C)=O)[C@]21CO1 (some centres not stated) | > 100 µM (inactive) | > 100 µM (inactive) | > 100 µM (inactive) | > 100 µM (inactive) | > 100 µM (inactive) | > 100 µM (inactive) | > 100 µM (inactive) | > 100 µM (inactive) | > 100 µM (inactive) | > 100 µM (inactive) | > 100 µM (inactive) | > 100 µM (inactive) | > 100 µM (inactive) | > 100 µM (inactive) | > 100 µM (inactive) | > 100 µM (inactive) | > 100 µM (inactive) | > 100 µM (inactive) | > 100 µM (inactive) | – |
| CCCCCCCCCC(=O)Oc1cccc2onc(C)c12 | > 100 µM (inactive) | 77.4 µM (inactive) | 40.8 µM (inactive) | > 100 µM (inactive) | 88.9 µM (inactive) | > 100 µM (inactive) | 49 µM (inactive) | > 100 µM (inactive) | > 100 µM (inactive) | > 100 µM (inactive) | > 100 µM (inactive) | > 100 µM (inactive) | > 100 µM (inactive) | > 100 µM (inactive) | > 100 µM (inactive) | > 100 µM (inactive) | > 100 µM (inactive) | > 100 µM (inactive) | > 100 µM (inactive) | – |
| Oc1ncnc2c1nnn2CCCCCCCCCCCCn1nnc2c(O)ncnc21 | > 100 µM (inactive) | > 100 µM (inactive) | 25.7 µM (inactive) | 41.5 µM (inactive) | 32.6 µM (inactive) | 32.3 µM (inactive) | > 35.2 µM (inactive) | > 100 µM (inactive) | 31.7 µM (inactive) | > 85.5 µM (inactive) | 18.2 µM (inactive) | > 100 µM (inactive) | 23.4 µM (inactive) | > 100 µM (inactive) | > 90.6 µM (inactive) | 36.9 µM (inactive) | 37.7 µM (inactive) | > 83.4 µM (inactive) | 99.1 µM (inactive) | – |
| C=CCOC(=O)CCCCCCCCCCCCCCCOC(=O)c1c(CCC[C@@H](C)O[Si](C)(C)C(C)(C)C)nc([O-])[n+]2c1CC[C@H]2CC1(CC/C=C\[C@H](CC)O[Si](C(C)C)(C(C)C)C(C)C)OCCO1 | > 100 µM (inactive) | 85.9 µM (inactive) | 28.4 µM (inactive) | – | > 100 µM (inactive) | 35.7 µM (inactive) | – | 14.4 µM (inactive) | > 100 µM (inactive) | 34 µM (inactive) | 47.1 µM (inactive) | > 100 µM (inactive) | 37.2 µM (inactive) | 48.8 µM (inactive) | > 100 µM (inactive) | 55 µM (inactive) | > 100 µM (inactive) | > 100 µM (inactive) | 30.1 µM (inactive) | 18.6 µM (inactive) |
| O=S1(=O)c2cnccc2N=C(NCc2ccccc2)N1c1ccccc1 | > 100 µM (inactive) | > 100 µM (inactive) | > 100 µM (inactive) | 78 µM (inactive) | > 100 µM (inactive) | 36.7 µM (inactive) | 58.6 µM (inactive) | 41 µM (inactive) | > 100 µM (inactive) | 71.9 µM (inactive) | 73.8 µM (inactive) | > 100 µM (inactive) | 83.2 µM (inactive) | 20.6 µM (inactive) | > 100 µM (inactive) | > 100 µM (inactive) | > 100 µM (inactive) | 61.9 µM (inactive) | > 100 µM (inactive) | – |
| COc1ccc(/C=C\c2cc(OC)c(OC(C)=O)c(OC)c2)cc1 | 25.1 µM (inactive) | 5.06 µM (inactive) | 15.7 µM (inactive) | 8.89 µM (inactive) | 27.4 µM (inactive) | 27.9 µM (inactive) | 13.3 µM (inactive) | 5.46 µM (inactive) | 2.32 µM (inactive) | 7.21 µM (inactive) | 8.53 µM (inactive) | 19 µM (inactive) | 7.53 µM (inactive) | 12.8 µM (inactive) | 26.4 µM (inactive) | 5.18 µM (inactive) | 10.5 µM (inactive) | 34.4 µM (inactive) | 28.7 µM (inactive) | – |
| COC(=O)N1[C@H]2Cc3c(OC)c(C)c(OC)c(OC)c3[C@@H]1/C(=C\c1cc(OC)c(OC)c(C)c1OC)N(Cc1ccccc1)C2=O | 34.6 µM (inactive) | 27.4 µM (inactive) | 18.7 µM (inactive) | 32.4 µM (inactive) | 0.23 µM (active) | 32.4 µM (inactive) | 7.85 µM (inactive) | 28.6 µM (inactive) | > 100 µM (inactive) | 40.6 µM (inactive) | 35.6 µM (inactive) | 28.6 µM (inactive) | 24.7 µM (inactive) | 20.9 µM (inactive) | 6.7 µM (inactive) | 40.8 µM (inactive) | 78.2 µM (inactive) | 13.8 µM (inactive) | > 100 µM (inactive) | – |
